Data published in ChEMBL document CHEMBL3585335, “Isolation and Synthetic Diversification of Jadomycin 4-Amino-l-phenylalanine” (J Nat Prod, 2015).
Calls of active or inactive are those of the source.

What was measured:
Escherichia coli [1] = assay: Effect on photodynamic inactivation in Escherichia coli pUC19 DNA assessed as photo-mediated DNA cleavage at 10 to 100 uM by ethidium bromide gel-electrophoresis analysis
Escherichia coli [2] = assay: Effect on Copper-mediated Escherichia coli pUC19 DNA cleavage at 100 uM by gel-electrophoresis analysis
Escherichia coli [3] = assay: Effect on Copper-mediated Escherichia coli pBR322 DNA cleavage at 100 uM by gel-electrophoresis analysis

Measured: Activity

Cc1cc(O)c2c(c1)C1OC(=O)[C@H](Cc3ccc(NC(=O)COc4ccc5ccccc5c4)cc3)N1C1=C2C(=O)c2cccc(O[C@H]3C[C@@H](O)[C@@H](O)[C@H](C)O3)c2C1=O (stereo partly drawn)
inactive: all assays above
